Test results taken from patent US20100183580A1, “TREATMENT OF PIGS FOR REDUCING THE FEED CONVERSION RATIO OR INCREASING THE GROWTH RATE” (priority 2007, published 2010).
Where “and” joins values, the source holds several entries; their conditions need not be identical. Equal values may be shown once. Read-outs that look alike come from different tables or passages of the source.

Assays:
[1] = system: weaned piglets (pigs of Rattlerow Seghers origin); format: in vivo; parameters: dG / End BW: unit not given here
Description: The setup of the experiments described below is to assess the influence of DMG on the performance in model species for pigs: mortality, feed conversion ratio (FCR), daily growth (dG), body weight (BW).
To examine all the effects associated with the supplementation of dimethylglycine (DMG) in pig feed, a test was setup with pigs of Rattlerow Seghers origin as model species. In this feeding trial 60 weaned piglets of even sex distribution were kept for 42 days. Teeth of piglets were clipped and male piglets were neutered during the first week after birth. At the beginning of the test the piglets were ad random divided per sex in 20 pens with 3 piglets per pen, reckoning even weight distribution at pen level. The piglets were fed with one type of feed from the first day on till the end of the test period. The type of feed was attributed on a random basis to the different housings. The control feed was based on a commercial piglet feed enriched with 5% corn oil to increase the oxidative stress in the feed. The feed had the following composition: 91% dry matter, 5% ash, 18% crude protein, 8% crude fat, 4% crude fibre and 56% other carbohydrate. It has a (calculated) metabolizable energy value of about 13.9 MJ/kg.
In the second type of feed 500mg of DMG was added per kilogram to the same composition of feed as described for the control feed. Over the entire test period, the pigs consumed on average about 290 mg DMG per piglet per day. The housing of the piglets consisted out of slatted floor pig pens of 1.05 m×1.7 m with a total surface of 1.785 m^2. Feed and water were ad libitum available at all times.
Each piglet was weighted after overnight fasts at 4 times, namely at days 0, 14, 29 and 42. The daily growth for the total growth period (dG) as well as daily growth during the three periods (between the start and the fourteenth day (dGI), between the fourteenth and the twenty-ninth day (dGII) and between the twenty-ninth day and the forty-second day (dGIII)) was calculated for each animal. The feed intake for each pen was also measured during these periods. The feed conversion ratio was calculated for each of the pens for both the growth period excluding the first two weeks (FRCII+III) and for the total growth period (FRC). This feed conversion ratio was calculated by dividing the total feed consumption by the weight gain of the piglets during the entire experiment.

growing broilers = conditions: DMG supplementation; cited from earlier work
[2] = system: male grower-finisher pigs exposed to mycoplasmal infections; conditions: cited from earlier work
broilers = conditions: diet supplemented with pangamic acid; cited from earlier work

**Q.** Which “End BW” value ([1]; Barrow, DMG 500 ppm, mean ± SD) does the source give for `CN(C)CC(=O)O` [DMG, N,N-dimethylglycine] here?
**A.** 23.4 ± 0.86

**Q.** And the dG ([1]; Barrow, DMG 500 ppm, mean ± SD)?
**A.** 356 ± 20

**Q.** What about the “FCRII + III” value ([1]; Barrow, excluding the first two weeks, DMG 500 ppm, mean ± SD) of the same molecule?
**A.** 1.71 ± 0.12

**Q.** And the “FCRII + III, DMG-effect” value ([1]; Barrow, excluding the first two weeks, vs control)?
**A.** −6.2%

**Q.** And the FCR ([1]; Barrow, total growth period, DMG 500 ppm, mean ± SD)?
**A.** 1.80 ± 0.09

**Q.** What about the “FCR, DMG-effect” value ([1]; Barrow, total growth period, vs control) of the same molecule?
**A.** −8.4%

**Q.** And the “End BW” value ([1]; Gilt, DMG 500 ppm, mean ± SD)?
**A.** 19.3 ± 1.64

**Q.** What about the dG ([1]; Gilt, DMG 500 ppm, mean ± SD) of the same molecule?
**A.** 271 ± 39

**Q.** What about the “FCRII + III” value ([1]; Gilt, excluding the first two weeks, DMG 500 ppm, mean ± SD) of the same molecule?
**A.** 1.74 ± 0.09

**Q.** And the “FCRII + III, DMG-effect” value ([1]; Gilt, excluding the first two weeks, vs control)?
**A.** −8.9%

**Q.** And the FCR ([1]; Gilt, total growth period, DMG 500 ppm, mean ± SD)?
**A.** 1.93 ± 0.16

**Q.** And the “FCR, DMG-effect” value ([1]; Gilt, total growth period, vs control)?
**A.** −3.6%

**Q.** And the “End BW, DMG-effect” value ([1]; Gilt, vs control)?
**A.** −7.0%

**Q.** What about the “dG, DMG-effect” value ([1]; Gilt, vs control) of the same molecule?
**A.** −11.0%

**Q.** What about the dGI ([1]; barrows and gilts, daily growth day 0-14, DMG 500 mg/kg feed, mean ± SD) of the same molecule?
**A.** 94 ± 58 g/day

**Q.** And the dGII ([1]; barrows and gilts, daily growth day 14-29, DMG 500 mg/kg feed, mean ± SD)?
**A.** 365 ± 65 g/day

**Q.** What about the dGIII ([1]; barrows and gilts, daily growth day 29-42, DMG 500 mg/kg feed, mean ± SD) of the same molecule?
**A.** 491 ± 118 g/day

**Q.** And the “dGI, DMG-effect” value ([1]; barrows and gilts, day 0-14, vs control)?
**A.** −7.0%

**Q.** What about the “dGII, DMG-effect” value ([1]; barrows and gilts, day 14-29, vs control) of the same molecule?
**A.** +8.1%

**Q.** And the “dGIII, DMG-effect” value ([1]; barrows and gilts, day 29-42, vs control)?
**A.** +2.1%

**Q.** And the End body weight ([1]; barrows and gilts, day 42, DMG 500 mg/kg feed, mean ± SD)?
**A.** 21.4 ± 2.46 kg

**Q.** And the “FCRII + III, DMG-effect” value ([1]; barrows and gilts, excluding the first two weeks, vs control)?
**A.** −7.6%

**Q.** And the “FCRII + III” value ([1]; barrows and gilts, growth period excluding the first two weeks, DMG 500 mg/kg feed, mean ± SD)?
**A.** 1.72 ± 0.10

**Q.** And the “improvement in feed conversion ratio (lower FCR)” value ([1]; barrows and gilts, growth period excluding the first two weeks, vs control, given unsigned)?
**A.** 7.6%

**Q.** What about the “FCR (feed conversion ratio)” value ([1]; barrows and gilts, total growth period, DMG 500 mg/kg feed, mean ± SD) of the same molecule?
**A.** 1.87 and 1.87 ± 0.14

**Q.** What about the “FCR, DMG-effect” value ([1]; barrows and gilts, total growth period, vs control) of the same molecule?
**A.** −5.9%

**Q.** What about the “improvement in feed conversion ratio (lower FCR)” value ([1]; barrows and gilts, total growth period, vs control, given unsigned) of the same molecule?
**A.** 5.9%

**Q.** What about the “Daily growth (dG)” value ([1]; barrows and gilts, total period day 0-42, DMG 500 mg/kg feed, mean ± SD) of the same molecule?
**A.** 314 ± 53 g/day

**Q.** And the “improvement in feed conversion ratio (lower FCR)” value ([1]; barrows, total growth period, vs control, given unsigned)?
**A.** 8.4%

**Q.** What about the “improvement in feed conversion ratio (FCRII+III, lower)” value ([1]; gilts, growth period excluding the first two weeks, vs control, given unsigned) of the same molecule?
**A.** 8.9%

**Q.** What about the “improvement in feed efficiency (lower FCR)” value ([1]; gilts, total growth period, vs control, only numerically, given unsigned) of the same molecule?
**A.** 3.6%

**Q.** And the “health of the animals during the experiment (clinical signs of disease)” value ([1]; pig, in vivo)?
**A.** remained healthy

**Q.** And the body weight gain (growing broilers)?
**A.** not an important impact

**Q.** What about the feed conversion rate (growing broilers) of the same molecule?
**A.** decreased

**Q.** Which “lung area damaged by mycoplasmal infection” value ([2]; 0.125% betaine in feed) does the source give for `C[N+](C)(C)CC(=O)O` [betaine] here?
**A.** significant reduction

**Q.** And the “growth rate and other performance characteristics, such as the feed conversion ratio” value ([2]; growing pigs exposed to mycoplasmal infections)?
**A.** improvements

**Q.** With `CN(C)CC(=O)OC[C@@H](O)[C@@H](O)[C@H](O)[C@@H](O)C(=O)O` [pangamic acid, 6-O-(dimethylaminoacetyl)-D-gluconic acid] as the molecule, how does the body weight gain (broilers) read?
**A.** reduction

**Q.** And the feed conversion rate (broilers)?
**A.** not affected
